Laboratory results reported in patent publication US20200400650A1, “METHODS FOR DECONTAMINATING CIRCUITS FOR PRODUCING GLUCOSE POLYMERS AND HYDROLYSATES OF GLUCOSE POLYMERS” (Roquette Freres, priority 2012, published 2020).
Entries after “also recorded” stand apart in the source; their conditions may differ.

Columns and labels:
hTLR2 receptor = target: T1, hTLR2 receptor (Homo sapiens, UniProt O60603); test: HEK-Blue hTLR2 cell response test (SEAP reporter activity); type: cell-based
T1 construct: host or cells: HEK-Blue hTLR2 (HEK293-derived, SEAP reporter)
T1 sequence (O60603 19-784 limits assumed): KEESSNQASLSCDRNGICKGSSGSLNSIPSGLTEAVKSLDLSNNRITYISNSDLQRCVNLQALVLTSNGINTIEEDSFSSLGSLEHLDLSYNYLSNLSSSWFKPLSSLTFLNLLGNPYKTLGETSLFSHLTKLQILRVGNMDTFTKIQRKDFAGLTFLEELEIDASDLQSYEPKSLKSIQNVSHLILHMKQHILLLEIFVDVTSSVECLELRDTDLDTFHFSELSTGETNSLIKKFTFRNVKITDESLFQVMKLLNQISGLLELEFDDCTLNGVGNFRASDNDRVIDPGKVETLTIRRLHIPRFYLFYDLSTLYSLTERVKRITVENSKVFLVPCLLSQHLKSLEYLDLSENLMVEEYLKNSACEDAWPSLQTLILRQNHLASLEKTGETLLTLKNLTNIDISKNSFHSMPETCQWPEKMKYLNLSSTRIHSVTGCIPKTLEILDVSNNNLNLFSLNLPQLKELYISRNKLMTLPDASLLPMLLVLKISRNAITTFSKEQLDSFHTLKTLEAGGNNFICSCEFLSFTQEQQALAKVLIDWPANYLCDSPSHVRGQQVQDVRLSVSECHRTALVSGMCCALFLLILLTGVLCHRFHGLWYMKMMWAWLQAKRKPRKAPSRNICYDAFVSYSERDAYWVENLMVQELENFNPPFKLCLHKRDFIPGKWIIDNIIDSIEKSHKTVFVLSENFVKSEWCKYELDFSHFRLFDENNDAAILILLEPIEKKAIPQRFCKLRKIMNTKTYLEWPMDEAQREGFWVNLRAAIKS
From the text: (§1) The cell lines, in particular HEK-Blue™ (InvivoGen), are lines modified by stable transfection with a vector encoding an innate immunity receptor, in particular human (h) receptors. They are also cotransfected with the reporter gene, in particular a reporter gene producing SEAP, the synthesis of which is under the direct control of the signaling pathway associated with the receptor overexpressed. Preferably, this reporter gene encodes a colored or fluorescent protein or a protein of which the activity can be measured with or without substrate. […] The use of these lines makes it possible to target certain families of molecules of microbial origin according to the receptor expressed. Preferably, cell lines expressing either hTLR2 or hTLR4 or hNOD2 are used. In addition, a control line which expresses no innate immunity receptor is also used.
(§2) For the tests according to the present invention, four lines are preferably used: • HEK-Blue™ hTLR2 line: this line expressing the hTLR2 receptor responds specifically to TLR2 agonists (PGNs and lipopeptides especially). […]
(§3) The dose-response curves are produced with standard agonist molecules: LPS, PGN, LTA, zymosan and MDP. The Raw-Blue™ and HEK-Blue™ TLR2, TLR4, NOD2 and Null lines are incubated with increasing concentrations of agonists, and the cell response is measured by quantifying the SEAP activity (FIGS. 1-5). […]

hTLR4 receptor = target: T2, hTLR4 receptor (Homo sapiens, UniProt O00206+Q9Y6Y9); test: HEK-Blue hTLR4 cell response test (SEAP reporter activity); type: cell-based
T2 construct: host or cells: HEK-Blue hTLR4 (HEK293-derived, SEAP reporter)
T2 sequence (O00206 24-839): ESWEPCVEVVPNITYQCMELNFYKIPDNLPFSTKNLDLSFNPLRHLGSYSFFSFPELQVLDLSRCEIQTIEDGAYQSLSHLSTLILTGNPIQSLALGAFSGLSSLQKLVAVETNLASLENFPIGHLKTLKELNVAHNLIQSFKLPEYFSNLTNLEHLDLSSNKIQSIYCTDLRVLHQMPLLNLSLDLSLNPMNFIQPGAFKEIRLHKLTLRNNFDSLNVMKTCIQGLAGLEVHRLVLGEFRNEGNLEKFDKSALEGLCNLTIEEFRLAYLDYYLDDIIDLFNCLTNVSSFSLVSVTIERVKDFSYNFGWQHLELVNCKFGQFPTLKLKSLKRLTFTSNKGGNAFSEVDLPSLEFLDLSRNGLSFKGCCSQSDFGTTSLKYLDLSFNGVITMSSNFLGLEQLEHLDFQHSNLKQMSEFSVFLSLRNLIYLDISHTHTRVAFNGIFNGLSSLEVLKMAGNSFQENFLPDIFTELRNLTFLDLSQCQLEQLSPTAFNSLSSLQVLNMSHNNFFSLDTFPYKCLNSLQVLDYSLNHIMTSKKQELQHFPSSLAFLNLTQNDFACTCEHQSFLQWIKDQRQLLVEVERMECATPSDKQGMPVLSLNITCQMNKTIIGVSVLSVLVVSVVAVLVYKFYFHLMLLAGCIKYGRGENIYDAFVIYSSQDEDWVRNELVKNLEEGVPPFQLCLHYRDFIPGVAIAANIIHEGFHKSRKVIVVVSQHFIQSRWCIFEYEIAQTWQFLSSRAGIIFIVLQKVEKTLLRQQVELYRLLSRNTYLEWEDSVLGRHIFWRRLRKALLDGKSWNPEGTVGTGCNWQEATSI
T2 sequence (Q9Y6Y9 17-160 limits assumed): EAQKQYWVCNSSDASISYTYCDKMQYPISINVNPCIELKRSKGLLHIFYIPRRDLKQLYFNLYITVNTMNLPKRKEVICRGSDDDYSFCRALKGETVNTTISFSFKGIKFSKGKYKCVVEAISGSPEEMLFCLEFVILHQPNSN
From the text: as §1, §2, §3

hNOD2 receptor = target: T3, hNOD2 receptor (Homo sapiens, UniProt Q9HC29); test: HEK-Blue hNOD2 cell response test (SEAP reporter activity); type: cell-based; conditions: increasing concentrations of agonist
T3 construct: host or cells: HEK-Blue hNOD2 (HEK293-derived, SEAP reporter)
T3 sequence (Q9HC29 whole entry): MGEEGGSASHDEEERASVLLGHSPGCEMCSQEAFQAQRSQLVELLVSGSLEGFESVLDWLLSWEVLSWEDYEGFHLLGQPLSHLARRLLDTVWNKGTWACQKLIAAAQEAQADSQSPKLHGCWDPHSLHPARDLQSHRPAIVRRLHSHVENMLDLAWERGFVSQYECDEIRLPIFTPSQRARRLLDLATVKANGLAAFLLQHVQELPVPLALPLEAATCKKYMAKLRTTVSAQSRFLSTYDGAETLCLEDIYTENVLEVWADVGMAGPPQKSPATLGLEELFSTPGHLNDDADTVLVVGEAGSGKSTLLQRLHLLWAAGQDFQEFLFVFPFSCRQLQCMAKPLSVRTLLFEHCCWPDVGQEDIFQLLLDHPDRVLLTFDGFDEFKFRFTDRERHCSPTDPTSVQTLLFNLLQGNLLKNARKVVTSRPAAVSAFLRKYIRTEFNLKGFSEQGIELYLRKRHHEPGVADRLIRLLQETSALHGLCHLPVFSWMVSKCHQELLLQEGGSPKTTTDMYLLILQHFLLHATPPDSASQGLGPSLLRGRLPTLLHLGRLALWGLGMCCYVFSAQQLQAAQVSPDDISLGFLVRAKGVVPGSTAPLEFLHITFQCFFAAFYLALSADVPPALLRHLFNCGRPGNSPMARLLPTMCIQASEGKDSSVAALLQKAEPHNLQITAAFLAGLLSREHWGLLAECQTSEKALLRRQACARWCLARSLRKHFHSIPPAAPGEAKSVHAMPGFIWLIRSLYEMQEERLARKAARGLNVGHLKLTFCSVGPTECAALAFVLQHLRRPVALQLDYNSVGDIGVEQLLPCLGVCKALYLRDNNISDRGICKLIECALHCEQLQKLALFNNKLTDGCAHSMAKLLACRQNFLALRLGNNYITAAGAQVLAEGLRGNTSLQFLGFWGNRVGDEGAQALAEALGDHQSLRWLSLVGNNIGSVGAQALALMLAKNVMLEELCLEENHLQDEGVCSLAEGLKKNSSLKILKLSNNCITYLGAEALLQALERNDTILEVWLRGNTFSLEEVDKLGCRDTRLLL
From the text: as §1, §2, §3

Raw-Blue™ line = test: Raw-Blue cell inflammatory response test (SEAP reporter activity); type: cell-based, mouse
From the text: The Raw-Blue™ line is a line of mouse macrophages transfected with a reporter gene producing a secreted form of alkaline phosphatase (SEAP: secreted embryonic alkaline phosphatase), the transcription of which is under the direct control of the inflammatory signaling pathways. The advantage of this line is that it naturally expresses virtually all the innate immunity receptors, including the TLR2, TLR4 and NOD2 receptors. Thus, these cells will respond to the majority of inflammatory contaminants, and the response will be monitored by measuring the enzymatic activity of the SEAP produced. Preferably, this line is used in the test at a cell density of approximately 0.5×10^6 cells/well. The bringing of the preparation of glucose polymers or of hydrolysates thereof into contact with the cells lasts approximately 16 to 24 h.
The dose-response curves are produced with standard agonist molecules: LPS, PGN, LTA, zymosan and MDP. The Raw-Blue™ and HEK-Blue™ TLR2, TLR4, NOD2 and Null lines are incubated with increasing concentrations of agonists, and the cell response is measured by quantifying the SEAP activity (FIGS. 1-5).
For the cell tests, the samples are diluted to 1/10 in the cell culture medium (final concentration: 3.2% (w/v)). […]

[1] = tested on: Raw-Blue™ and HEK-Blue™ lines; test: Assessment by sample of the inflammatory activities from the combined cell tests; type: cell-based; conditions: overall assessment, FIG. 11
Description: The objective of these tests is to determine the pro-inflammatory reactivity and the nature of the contaminants present in the glucose polymer matrices and the batch of glucose polymer hydrolysate.
The analyses are carried out on: • Raw-Blue™ line: any contaminants with high reactivity for PGNs, • HEK-Blue™ hTLR2 line: high reactivity for PGNs, • HEK-Blue™ hTLR4 line: high reactivity for LPSs, • HEK-Blue™ hNOD2 line: MDP and PGN depolymerization products, • HEK-Blue™ Null2 line: control for absence of cell toxicity.

[2] = background statement; cited from earlier work
[3] = increasing concentrations of agonist, SEAP activity

CC(=O)N[C@H]1C(O)O[C@H](CO)[C@@H](O)[C@@H]1O[C@H](C)C(=O)N[C@@H](C)C(=O)N[C@H](CCC(=O)O)C(N)=O (mixture of isomers) [MDP, muramyl dipeptide]
HEK-Blue hTLR2 cell response to standard agonists (hTLR2 receptor; [3]): no reactivity | HEK-Blue hTLR4 cell response to standard agonists (hTLR4 receptor; [3]): no reactivity | HEK-Blue hNOD2 cell response to standard agonists (hNOD2 receptor): strong reactivity | Raw-Blue cell response to standard agonists (Raw-Blue™ line; [3]): do not respond

O.O=C[C@H](O)[C@@H](O)[C@H](O)[C@H](O)CO [LYCADEX®, dextrose monohydrate]
HEK-TLR2 cell response induced by matrix (hTLR2 receptor; nonfiltered sample, 3.2% (w/v), monohydrate): do not trigger responses; also recorded: only barely or not at all active | HEK-TLR4 cell response induced by matrix (hTLR4 receptor; nonfiltered sample, 3.2% (w/v)): do not trigger a significant response | Assessment of inflammatory activity by sample [1]: low-strength inflammatory activity | Raw cell response induced by matrix (Raw-Blue™ line; nonfiltered sample, 3.2% (w/v)): trigger an inflammatory response

formyl-Met-Leu-Phe tripeptide [f-MLP]
Induction of a cytokine response per se [2]: incapable of inducing a cytokine response per se
